# Measurements as given in patent US20240306639A1, “USE OF FLUAZIFOP-P-BUTYL FOR INSECT CONTROL” (priority 2021, published 2024).
# System: Bemisia tabaci (Silverleaf whitefly)
# Experiment: Curative control of Bemisia tabaci second nymph stage (N2) on French beans, spray application
# Format: in vivo
# Text: Examples 1 to 3 describe biological tests relating to the curative and preventative control of a series of insects with the spray application of dilutions of a formulation containing fluazifop-P-butyl as sole active ingredient (EC125 formulation (FUSILADE MAX®)) in combination with OCHIMAR adjuvant (Syngenta-alkyl ester of phosphoric acid (752 g/L EC formulation)) to bean or cabbage plants infested with Bemisia tabaci, Frankliniella occidentalis or Myzus persicae. The testing protocols and insect control effects are shown. • ai=active ingredient (fluazifop-P-butyl).
# Curative control of Bemisia tabaci (Silverleaf whitefly), second nymph stage (N2), treated on French beans (BBCH12):
# • All treatments including check were applied with 250 mL adjuvant (Ochima) per hectare (ha).
smiles,measurement,setting,value
"CCCCOC(=O)[C@@H](C)Oc1ccc(Oc2ccc(C(F)(F)F)cn2)cc1 [fluazifop-P-butyl, butyl (2R)-2-[4-[5-(trifluoromethyl)pyridin-2-yl]oxyphenoxy]propanoate]",efficacy against whiteflies compared to thrips or aphids,conclusion from the data in Tables 1 to 3,selective efficacy
same,controlling whitefly,effect enhanced compared to aphids and thrips,highly effective
